# According to PubChem BioAssay AID1259407 (Chemical Carcinogenesis Research Information System (CCRIS), 2018):
# Entries after “also recorded” stand apart in the source; their conditions may differ. Calls of active or inactive are those of the source. How the calls were made is not given here.
# System: CCRIS mutagenicity, Ames/micronucleus/aberration tests
# Test: CCRIS mutagenicity studies
# [1] = Test System: AMES SALMONELLA TYPHIMURIUM, Strain/Indicator: TA98, Metabolic Activation: NONE, Method: PREINCUBATION
# [2] = Test System: AMES SALMONELLA TYPHIMURIUM, Strain/Indicator: TA100, Metabolic Activation: HAMSTER, LIVER, S-9, AROCLOR 1254 (30%), Method: PREINCUBATION
# [3] = Test System: AMES SALMONELLA TYPHIMURIUM, Strain/Indicator: TA100, Metabolic Activation: NONE, Method: PREINCUBATION
# [4] = Test System: AMES SALMONELLA TYPHIMURIUM, Strain/Indicator: TA100, Metabolic Activation: RAT, LIVER, S-9, AROCLOR 1254 (30%), Method: PREINCUBATION
# [5] = Test System: AMES SALMONELLA TYPHIMURIUM, Strain/Indicator: TA1535, Metabolic Activation: NONE, Method: PREINCUBATION
# [6] = Test System: AMES SALMONELLA TYPHIMURIUM, Strain/Indicator: TA100, Metabolic Activation: NONE, Method: STANDARD PLATE
structure (smiles),measurement,setting,value
O=C/C=C/c1ccco1,mutagenic call,"Test System: AMES SALMONELLA TYPHIMURIUM, Strain/Indicator: TA97, Metabolic Activation: HAMSTER, LIVER, S-9, AROCLOR 1254 (10%), Method: PREINCUBATION",inactive; negative
same,mutagenic call,"Test System: AMES SALMONELLA TYPHIMURIUM, Strain/Indicator: TA97, Metabolic Activation: HAMSTER, LIVER, S-9, AROCLOR 1254 (30%), Method: PREINCUBATION",inactive; negative
same,mutagenic call,"Test System: AMES SALMONELLA TYPHIMURIUM, Strain/Indicator: TA97, Metabolic Activation: NONE, Method: PREINCUBATION",inactive; negative
same,mutagenic call,"Test System: AMES SALMONELLA TYPHIMURIUM, Strain/Indicator: TA97, Metabolic Activation: RAT, LIVER, S-9, AROCLOR 1254 (10%), Method: PREINCUBATION",inactive; negative
same,mutagenic call,"Test System: AMES SALMONELLA TYPHIMURIUM, Strain/Indicator: TA97, Metabolic Activation: RAT, LIVER, S-9, AROCLOR 1254 (30%), Method: PREINCUBATION",inactive; negative
same,mutagenic call,"Test System: AMES SALMONELLA TYPHIMURIUM, Strain/Indicator: TA98, Metabolic Activation: HAMSTER, LIVER, S-9, AROCLOR 1254 (10 OR 30%), Method: PREINCUBATION",inactive; negative
same,mutagenic call,[1],inactive; negative
same,mutagenic call,"Test System: AMES SALMONELLA TYPHIMURIUM, Strain/Indicator: TA98, Metabolic Activation: RAT, LIVER, S-9, AROCLOR 1254 (10 OR 30%), Method: PREINCUBATION",inactive; negative
same,mutagenic call,"Test System: AMES SALMONELLA TYPHIMURIUM, Strain/Indicator: TA100(NR), Metabolic Activation: NONE, Method: PREINCUBATION",inactive; negative
same,mutagenic call,"Test System: AMES SALMONELLA TYPHIMURIUM, Strain/Indicator: TA100, Metabolic Activation: HAMSTER, LIVER, S-9, AROCLOR 1254 (10%), Method: PREINCUBATION",inactive; negative
same,mutagenic call,[2],inactive; negative
same,mutagenic call,[3],inactive; negative
same,mutagenic call,"Test System: AMES SALMONELLA TYPHIMURIUM, Strain/Indicator: TA100, Metabolic Activation: RAT, LIVER, S-9, AROCLOR 1254 (10%), Method: PREINCUBATION",inactive; negative
same,mutagenic call,[4],inactive; negative
same,mutagenic call,"Test System: AMES SALMONELLA TYPHIMURIUM, Strain/Indicator: TA100, Metabolic Activation: RAT, LIVER, S-9, AROCLOR 1254, Method: PREINCUBATION",inactive; negative
same,mutagenic call,"Test System: AMES SALMONELLA TYPHIMURIUM, Strain/Indicator: TA1535, Metabolic Activation: HAMSTER, LIVER, S-9, AROCLOR 1254 (10%), Method: PREINCUBATION",inactive; negative
same,mutagenic call,"Test System: AMES SALMONELLA TYPHIMURIUM, Strain/Indicator: TA1535, Metabolic Activation: HAMSTER, LIVER, S-9, AROCLOR 1254 (30%), Method: PREINCUBATION",inactive; negative
same,mutagenic call,[5],inactive; negative
same,mutagenic call,"Test System: AMES SALMONELLA TYPHIMURIUM, Strain/Indicator: TA1535, Metabolic Activation: RAT, LIVER, S-9, AROCLOR 1254 (10%), Method: PREINCUBATION",inactive; negative
same,mutagenic call,"Test System: AMES SALMONELLA TYPHIMURIUM, Strain/Indicator: TA1535, Metabolic Activation: RAT, LIVER, S-9, AROCLOR 1254 (30%), Method: PREINCUBATION",inactive; negative
ONc1cccc(-c2ccccc2)c1,mutagenic call,"Test System: AMES SALMONELLA TYPHIMURIUM, Strain/Indicator: TA98, Metabolic Activation: NONE, Method: STANDARD PLATE",inactive; negative
same,mutagenic call,[6],inactive; negative
Cc1cccc(CN(C)N=O)c1,mutagenic call,"Test System: AMES SALMONELLA TYPHIMURIUM, Strain/Indicator: TA1535, Metabolic Activation: HAMSTER, LIVER, S-9, AROCLOR 1254, Method: STANDARD PLATE",active; positive
same,mutagenic call,"Test System: AMES SALMONELLA TYPHIMURIUM, Strain/Indicator: TA1535, Metabolic Activation: NONE, Method: STANDARD PLATE",inactive; negative
CC1=C(Cl)C(=O)NC1=O,mutagenic call,[6],inactive; negative
COc1cc(N=Nc2c(Br)cc([N+](=O)[O-])cc2[N+](=O)[O-])c(NC(C)=O)cc1N(CCOC(C)=O)CCOC(C)=O,mutagenic call,"End Point: IN VITRO CHROMOSOMAL ABERRATIONS, Test System: CHL CELLS, Metabolic Activation: NONE",active; positive (structural changes)
COc1ccc(C)cc1N,mutagenic call,"End Point: In vitro chromosomal aberrations, Test System: Chinese hamster lung (CHL/IU) cells, Metabolic Activation: None",active; positive (structural changes). toxicity at 1.2 mg/ml; also recorded: active; positive (structural changes). toxicity at 0.60 mg/ml; also recorded: active; positive (structural changes). toxicity at 0.8 mg/ml; no dose response observed
same,mutagenic call,"End Point: In vitro chromosomal aberrations, Test System: Chinese hamster lung (CHL/IU) cells, Metabolic Activation: Rat, Liver, S9, Phenobarbital and 5,6-benzoflavone",active; positive (structural changes and ploidy). toxicity at 1.2 mg/ml; no dose respons
same,mutagenic call,"End Point: In vivo micronucleus, Test System: Polychromatic erythrocytes, Species: Mouse, Strain/Sex: C57BL/6TacBr-[KO]p53[TSG-p53], Route: Oral",active; positive at all days
same,mutagenic call,"Test System: AMES SALMONELLA TYPHIMURIUM, Strain/Indicator: TA98, Metabolic Activation: HAMSTER, LIVER, S-9, AROCLOR 1254 (30%), Method: PREINCUBATION",active; positive
same,mutagenic call,"Test System: AMES SALMONELLA TYPHIMURIUM, Strain/Indicator: TA98, Metabolic Activation: HAMSTER, LIVER, S-9, PHENOBARBITAL AND BETA-NAPHTHOFLAVONE, Method: PREINCUBATION",active; positive
same,mutagenic call,[1],inactive; negative
same,mutagenic call,"Test System: AMES SALMONELLA TYPHIMURIUM, Strain/Indicator: TA98, Metabolic Activation: RAT, LIVER, S-9, AROCLOR 1254 (30%), Method: PREINCUBATION",active; positive
same,mutagenic call,[2],active; positive
same,mutagenic call,"Test System: AMES SALMONELLA TYPHIMURIUM, Strain/Indicator: TA100, Metabolic Activation: HAMSTER, LIVER, S-9, PHENOBARBITAL AND BETA-NAPHTHOFLAVONE, Method: PREINCUBATION",active; positive
same,mutagenic call,[3],inactive; negative
same,mutagenic call,[4],active; positive
same,mutagenic call,"Test System: AMES SALMONELLA TYPHIMURIUM, Strain/Indicator: TA1535, Metabolic Activation: HAMSTER, LIVER, S-9, PHENOBARBITAL AND BETA-NAPHTHOFLAVONE, Method: PREINCUBATION",inactive; negative
same,mutagenic call,[5],inactive; negative
same,mutagenic call,"Test System: AMES SALMONELLA TYPHIMURIUM, Strain/Indicator: TA1537, Metabolic Activation: HAMSTER, LIVER, S-9, PHENOBARBITAL AND BETA-NAPHTHOFLAVONE, Method: PREINCUBATION",active; positive
same,mutagenic call,"Test System: AMES SALMONELLA TYPHIMURIUM, Strain/Indicator: TA1537, Metabolic Activation: NONE, Method: PREINCUBATION",inactive; negative
same,mutagenic call,"Test System: E. COLI, Strain/Indicator: WP2UVRA, Metabolic Activation: HAMSTER, LIVER, S-9, PHENOBARBITAL AND BETA-NAPHTHOFLAVONE, Method: PREINCUBATION",inactive; negative
same,mutagenic call,"Test System: E. COLI, Strain/Indicator: WP2 UVRA, Metabolic Activation: HAMSTER, LIVER, S-9, Method: STANDARD PLATE",inactive; negative
same,mutagenic call,"Test System: E. COLI, Strain/Indicator: WP2 UVRA, Metabolic Activation: MOUSE, LIVER, S-9, AROCLOR 1254, Method: STANDARD PLATE",inactive; negative
same,mutagenic call,"Test System: E. COLI, Strain/Indicator: WP2UVRA, Metabolic Activation: NONE, Method: PREINCUBATION",inactive; negative
same,mutagenic call,"Test System: E. COLI, Strain/Indicator: WP2 UVRA, Metabolic Activation: NONE, Method: STANDARD PLATE",inactive; negative
same,mutagenic call,"Test System: E. COLI, Strain/Indicator: WP2 UVRA, Metabolic Activation: RAT, LIVER, S-9, AROCLOR 1254, Method: STANDARD PLATE",inactive; negative
same,mutagenic call,"Test System: E. COLI, Strain/Indicator: WP2 UVRA, Metabolic Activation: RAT, LIVER, S-9, Method: STANDARD PLATE",inactive; negative
same,mutagenic call,"Test System: UDS RODENT HEPATOCYTES, Strain/Indicator: THY INCORP (NON-S-PHASE), Metabolic Activation: NONE, Method: AUTORADIOGRAPHY",inactive; negative
Cc1nc2c(C)cc3c(nc(N)n3C)c2nc1C,mutagenic call,"Test System: AMES SALMONELLA TYPHIMURIUM, Strain/Indicator: TA98, Metabolic Activation: RAT, LIVER, S-9, AROCLOR 1254, Method: STANDARD PLATE",active; positive
C[C@@H]1C[C@@]2(O[C@H]2C)C(=O)O[C@@H]2CCN3CC=C(COC(=O)[C@]1(C)O)[C@H]23,mutagenic call,"Test System: UDS RAT HEPATOCYTES, Strain/Indicator: THY INCORP, Metabolic Activation: NONE, Method: AUTORADIOGRAPHY",active; positive
CCCCCCCCCCCCOC[N+](C)(C)Cc1ccccc1,mutagenic call,"Test System: BACILLUS SUBTILIS, Strain/Indicator: H17/REC, Metabolic Activation: NONE, Method: STANDARD PLATE",inactive; negative
same,mutagenic call,"Test System: BACILLUS SUBTILIS, Strain/Indicator: M45, Metabolic Activation: NONE, Method: STANDARD PLATE",inactive; negative
